The results in this text go back to publication PMC2699550, “Bacterial Ortholog of Mammalian Translocator Protein (TSPO) with Virulence Regulating Activity” (PLoS ONE, 2009).

The target of this experiment is T1, bacterial TSPO (P. fluorescens MF37 TSPO).
T1 construct: native protein in bacterial membranes; 438 bp fragment encoding 146 residues; theoretical 17 kDa, 37 kDa band on SDS-PAGE, apparent dimer
Put plainly: [3H]-PK […] saturation binding, Scatchard, bacterial membranes. Conditions: labelled compound; native membranes, 50 mM Tris-HCl pH 7.4; 0.6 to 59 nM tracer; non-specific with 30 µM PK 11195. The class given is biochemical, Pseudomonas fluorescens.

The Kd is the concentration at which binding is half-saturated. Read a high Kd as weaker binding. In the case of `CCC(C)N(C)C(=O)c1cc2ccccc2c(-c2ccccc2Cl)n1` (stereo not shown) [PK 11195], the Kd worked out at 920 pM.
